Test results taken from patent US10238689B2, “Methods for combating bacterial infections by killing persister cells with mitomycin C and/or cisplatin” (THE PENN STATE RESEARCH FOUNDATION, priority 2015, dated 2019).
“Also recorded” adds a separate entry of the source.

Experiments:
[1] = tested on: E. coli K-12 BW25113 VBNC cultures; assay: VBNC antibiotic killing assay; format: cell-based, Escherichia coli; conditions: 16 h
Experimental: Overnight cultures (16 h) of E. coli K-12 BW25113 grown in LB were diluted 1:1000 in LB and grown to a turbidity of 3.0 at 600 nm. Cells were washed three times with 0.85% NaCl to remove nutrients and incubated in 0.85% NaCl for 32 days until the VBNC population was ˜1,000-fold higher than the culturable population. […] Samples (0.5 mL) were diluted 1:1 with LB to stimulate cellular respiration for 10 min prior to staining with 1 μL of 1 mM RedoxSensor™ Green dye and 1 μL of 20 mM propidium iodide. Samples were visualized in a hemocytometer (Hausser Scientific, Horsham, Pa., USA) using an Olympus BX61 confocal microscope (Olympus, Tokyo, Japan) at 200× magnification in order to determine viability of the VBNC population. Cell counting data was averaged from four images and experiment was performed with at least two independent cultures.

[2] = tested on: pDNA of E. coli K-12 BW25113/pCA24N; assay: Denaturing agarose gel electrophoresis of pDNA from treated cells; format: cell-based, Escherichia coli; conditions: non-persisters and rifampicin-induced persisters, MMC 100 μg/mL 1 h
Experimental: Overnight cultures (16 h) of E. coli K-12 BW25113/pCA24N grown in LB were diluted 1:1000 in buffered LB and grown to the desired turbidity. For exponential phase cells (i.e., non-persisters), cultures were grown to a turbidity of 2.0 at 600 nm. For rifampicin-induced persisters, cultures were grown to a turbidity of 0.8 at 600 nm, exposed to rifampicin (100 μg/mL) for 30 min, centrifuged, and resuspended in fresh medium to remove the rifampicin. Non-persister and rifampicin-induced persister cultures were treated with MMC (100 μg/mL) for 1 h. pDNA was extracted from samples taken before and after MMC treatment and linearized by HindIII digestion. As a positive control, 2 μg of linearized pDNA from non-persisters was crosslinked in vitro with 500 μg/mL (1.5 mM) MMC in 0.2 mM EDTA, 50 mM NaCl, and 5 mM Tris (pH=7.6) with Na2S2O4 added six times at 10 min intervals to reach a final concentration of 2.25 mM (1.5× molarity of MMC). The in vitro crosslinking reaction was performed anaerobically on ice and the reaction was stopped by exposure to air. Linearized pDNA was visualized after electrophoresis through a TAE agarose gel and an alkaline denaturing agarose gel. Experiment was performed with at least two independent cultures.

[3] = tested on: S. aureus biofilm cultures; assay: Biofilm antibiotic killing assay; format: cell-based, Staphylococcus aureus; conditions: minimal medium (modified M9-glucose), 24 h treatment, MMC 10 μg/mL, ciprofloxacin 5 μg/mL
E. coli K-12 = format: cell-based, Escherichia coli
Experimental: Persister cell killing and eradication assays (planktonic cells). For the time course experiment, late stationary phase cells of E. coli K-12 (wild-type and isogenic mutants) were prepared by growing cells overnight (16 h) in LB medium buffered with 100 mM KPO4 at pH 7.0 (buffered LB). A 1 mL culture was used for a drop (10 μL×3) assay to check cell viability at 0 h (i.e., before antibiotic treatment). […] At 1 h intervals, 1 mL culture was centrifuged at 10,000 rpm for 3 min, the supernatant was discarded, the cells were resuspended in 1 mL of normal saline (0.85% NaCl), and the cell suspension was serially diluted for a drop assay to check cell viability.
To test for eradication, the wild-type E. coli K-12 cells were treated with cisplatin for 12 h, a 1 mL sample was centrifuged, the cell pellet was resuspended in 150 μL of normal saline, and the cells were spread on LB agar to check cell viability. Another 1 mL culture was diluted 1:10 with fresh buffered LB and the cells were incubated to allow any remaining cells to replicate. After 12 h, 18 h, and 24 h, 1 mL samples were centrifuged, resuspended in 150 μL of normal saline and spread on LB agar plates to check cell viability. At least two independent cultures were used.

[4] = tested on: clinical strains of P. aeruginosa; assay: Persister cell assay, multi-drug resistant clinical strains; format: cell-based, Pseudomonas aeruginosa; conditions: cisplatin 100 μg/mL
Experimental: For the persister cell assay of the pathogens, stationary-phase cells were used. Cultures of EHEC, P. aeruginosa, and S. aureus were prepared by a 1:1000 dilution of overnight grown cultures (LB medium for EHEC and P. aeruginosa, TSB for S. aureus) into fresh buffered LB medium for EHEC, M9-glucose for P. aeruginosa, and TSB for S. aureus and re-growing the cells to a turbidity of 3 to 4 at 600 nm for EHEC and S. aureus and growing for 24 h for P. aeruginosa. […]

S. aureus ATCC29213 = assay: Persister cell assay of pathogens (stationary phase); format: cell-based, Staphylococcus aureus; conditions: stationary phase cells, TSB; cisplatin 500 μg/mL, 1.7×MIC, 3 h
Experimental: For the persister cell assay of the pathogens, stationary-phase cells were used. Cultures of EHEC, P. aeruginosa, and S. aureus were prepared by a 1:1000 dilution of overnight grown cultures (LB medium for EHEC and P. aeruginosa, TSB for S. aureus) into fresh buffered LB medium for EHEC, M9-glucose for P. aeruginosa, and TSB for S. aureus and re-growing the cells to a turbidity of 3 to 4 at 600 nm for EHEC and S. aureus and growing for 24 h for P. aeruginosa. Stationary-phase cultures of EHEC (buffered LB medium), P. aeruginosa (M9-glucose medium), and S. aureus (TSB medium) were then treated with cisplatin (500 μg/mL for EHEC and S. aureus, 250 μg/mL for P. aeruginosa) for 3 h (250 mL flask, 250 rpm).

CO[C@@]12[C@H](COC(N)=O)C3=C(C(=O)C(C)=C(N)C3=O)N1C[C@@H]1N[C@@H]12 [MMC, mitomycin C]
fold more effective at killing VBNC cells than ciprofloxacin ([1]; VBNC population (RedoxSensor Green), MMC 10 μg/mL vs ciprofloxacin 5 μg/mL): 7 fold
survival of the culturable population ([1]; culturable population of VBNC cultures, MMC 10 μg/mL, ciprofloxacin 5 μg/mL): eradicates the culturable population; also recorded: eradicating the culturable population
pDNA crosslinking (migration as double-stranded DNA under denaturing conditions) [2]: crosslinks DNA in E. coli K-12 persister cells; also recorded: high percentage of crosslinking
survival [3]: eradicating cells beyond the limit of detection

N.N.[Cl][Pt][Cl] [cisplatin, cis-diamminodichloroplatinum(II)]
eradication of persister cells (colonies from 1 mL of culture) (E. coli K-12; 5×MIC of cisplatin for 12 h): completely eradicated
killing of katE or katG catalase mutants compared to the wild-type strain (E. coli K-12; 8 h treatment with 5×MIC of cisplatin): did not find any significant differences in killing
time course dependent killing (E. coli K-12; late stationary phase (16 h of growth), buffered LB, cisplatin 500 μg/mL (5×MIC), ciprofloxacin 5 μg/mL (100×MIC), 8 h): nearly eradicated; also recorded: eradicates late stationary-phase E. coli K-12 cells
regrowth when cisplatin is withdrawn (E. coli K-12; treated culture inoculated into fresh medium, 12 h, 18 h, and 24 h): no increase in turbidity or colonies
survival ([4]; strain INP-37): 0.05±0.06%
survival ([4]; strain INP-57M): 0.01±0.00%
survival ([4]; strain INP-64M): 0.02±0.00%
survival ([4]; strain RME-101): 0.02±0.03%
survival (S. aureus ATCC29213): 0.0001±0.0001%
